We go through 20 compounds from patent publication US11178871B2, “Herbicidal pyrimidine compounds” (BASF SE, priority 2016, dated 2021).

Assay type in all cases: in vivo
Test [1] has as its system Amaranthus retroflexus. The test is described as follows: greenhouse test, post-emergence treatment, AMARE. The source says:
(§1) The culture containers used were plastic flowerpots containing loamy sand with approximately 3.0% of humus as the substrate. The seeds of the test plants were sown separately for each species.
(§2) For the post-emergence treatment, the test plants were first grown to a height of 3 to 15 cm, depending on the plant habit, and only then treated with the active ingredients which had been suspended or emulsified in water. For this purpose, the test plants were either sown directly and grown in the same containers, or they were first grown separately as seedlings and transplanted into the test containers a few days prior to treatment.
(§3) Depending on the species, the plants were kept at 10-25° C. or 20-35° C., respectively.
(§4) The test period extended over 2 to 4 weeks. During this time, the plants were tended, and their response to the individual treatments was evaluated.
(§5) Evaluation was carried out using a scale from 0 to 100. 100 means no emergence of the plants, or complete destruction of at least the aerial moieties, and 0 means no damage, or normal course of growth. A good herbicidal activity is given at values of at least 70 and a very good herbicidal activity is given at values of at least 85.
(§6) The plants used in the greenhouse experiments were of the following species: […]

In test [2] the test system is Setaria viridis. The test is described as follows: greenhouse test, post-emergence treatment, SETVI.
From the text: as §1, §2, §3, §4, §5, §6

The subject of test [3] is Alopecurus myosuroides. Description: greenhouse test, post-emergence treatment, ALOMY. The following applies: post-emergence. An outline of the steps:
(§7)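 Visual rating on a 0-100 scale (100 = aerial parts destroyed or no emergence) was made 2-4 weeks after treating plants of 3-15 cm height with water-suspended or emulsified compound. Pots held loamy sand with approximately 3.0% humus; temperature 10-25 °C or 20-35 °C according to species.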

The test system of test [4] is Abutilon theophrasti. The test is described as follows: greenhouse test, post-emergence treatment, ABUTH.
From the text: as §1, §2, §3, §4, §5, §6

Test [5] concerns Echinocloa crus-galli. Description: greenhouse test, pre-emergence treatment, ECHCG. In outline:
(§8)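 Scores run from 0, normal growth, to 100, no emergence or aerial parts destroyed, assessed after 2 to 4 weeks at 10-25 °C or 20-35 °C depending on species. Actives in water were spray-applied immediately post-sowing onto loamy sand with approximately 3.0% humus; hoods kept on until rooting.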

In test [6] the test system is Avena fatua. The test is described as follows: greenhouse test, post-emergence treatment, AVEFA. In outline:
as §7

Test [7] has as its system Apera spica-venti. The test is described as follows: greenhouse test, pre-emergence treatment, APESV. An outline of the steps:
as §8

Test [8] relates to Echinocloa crus-galli. Description: greenhouse test, post-emergence treatment, ECHCG. The settings on record: post-emergence. An outline of the steps: as §7

For the compound `Clc1ccccc1-c1cnc(C2CC2)nc1C1CCCS1` (centres unmarked) [Ex. 55], the herbicidal activity entry in test [1] (1000 g/ha) and in test [2] (1000 g/ha) was “very good (a very good herbicidal activity is given at values of at least 85)” each time.
Take `Cc1oc(Br)cc1-c1nc(C2CC2)ncc1-c1ccccc1Br` [Ex. 253]: the herbicidal activity entry in test [1] (1000 g/ha) was “very good (a very good herbicidal activity is given at values of at least 85)”; in test [3] (1000 g/ha) it was “very good (a very good herbicidal activity is given at values of at least 85)”; in test [4] (1000 g/ha), “good (A good herbicidal activity is given at values of at least 70)”.
With `CCc1nc(C)c(-c2nc(C3CC3)ncc2-c2ccccc2Cl)o1` [Ex. 272], the herbicidal activity entry in test [5] (2000 g/ha), in test [6] (2000 g/ha), in test [2] (2000 g/ha), in test [3] (2000 g/ha) and in test [7] (2000 g/ha) was “very good (a very good herbicidal activity is given at values of at least 85)” in each case.
For the compound `CCc1ocnc1-c1nc(C2CC2)ncc1-c1ccccc1Cl` [Ex. 282], the herbicidal activity entry in test [5] (2000 g/ha), in test [6] (2000 g/ha), in test [2] (2000 g/ha), in test [3] (2000 g/ha) and in test [7] (2000 g/ha) was “very good (a very good herbicidal activity is given at values of at least 85)” throughout.
For `Cc1occc1-c1nc(C2CC2)ncc1-c1ccccc1Cl` [Ex. 58], the results for the herbicidal activity entry in test [6] (1000 g/ha) and in test [2] (1000 g/ha) were “good (A good herbicidal activity is given at values of at least 70)” and “very good (a very good herbicidal activity is given at values of at least 85)”, respectively.
Take `Cc1nc(C)c(-c2nc(C3CC3)ncc2-c2ccc(F)cc2Cl)o1` [Ex. 276]: the herbicidal activity result in test [1] (1000 g/ha), in test [3] (1000 g/ha), in test [4] (1000 g/ha) and in test [7] (1000 g/ha) was “very good (a very good herbicidal activity is given at values of at least 85)” throughout.
Turning to `Cc1ncoc1-c1nc(C2CC2)ncc1-c1cc(C(F)(F)F)ccc1Cl` [Ex. 262], the herbicidal activity entry in test [5] (1000 g/ha), in test [8] (1000 g/ha), in test [1] (1000 g/ha), in test [2] (1000 g/ha) and in test [7] (1000 g/ha) was “very good (a very good herbicidal activity is given at values of at least 85)” each time.
Regarding `Cc1nc(-c2nc(C3CC3)ncc2-c2ccccc2Cl)c(C)o1` [Ex. 277], the herbicidal activity entry in test [5] (1000 g/ha), in test [8] (1000 g/ha), in test [2] (1000 g/ha), in test [3] (1000 g/ha) and in test [7] (1000 g/ha) was “very good (a very good herbicidal activity is given at values of at least 85)” each time.
On to `Cc1ccccc1-c1cnc(C2CC2)nc1C` [Ex. 19], for which the herbicidal activity entry in test [1] (2000 g/ha) and in test [4] (2000 g/ha) was “very good (a very good herbicidal activity is given at values of at least 85)” throughout.
As to `Cc1nc(C(C)(Br)Br)ncc1-c1ccccc1Cl` [Ex. 50], the herbicidal activity entry in test [1] (500 g/ha) and in test [2] (500 g/ha) was “very good (a very good herbicidal activity is given at values of at least 85)” in each case.
For the compound `Cc1ncoc1-c1nc(C2CC2)ncc1-c1cc(Br)ccc1Br` [Ex. 273], the herbicidal activity result in test [5] (1000 g/ha), in test [1] (1000 g/ha), in test [2] (1000 g/ha), in test [3] (1000 g/ha) and in test [7] (1000 g/ha) was “very good (a very good herbicidal activity is given at values of at least 85)” throughout.
As for `CC(C)CC#Cc1nc(C2CC2)ncc1-c1ccccc1Cl` [Ex. 28], the values for the herbicidal activity entry in test [1] (1163 g/ha) and in test [4] (1163 g/ha) were “very good (a very good herbicidal activity is given at values of at least 85)” and “good (A good herbicidal activity is given at values of at least 70)”, respectively.
As to `COC(=O)C(C)c1nc(C2CC2)ncc1-c1ccccc1Br` (centres unmarked) [Ex. 85], the herbicidal activity entry in test [1] (2000 g/ha) was “good (A good herbicidal activity is given at values of at least 70)”; in test [4] (2000 g/ha), “very good (a very good herbicidal activity is given at values of at least 85)”.
As to `COc1ncc(-c2ccccc2Cl)c(/C=C/c2ccco2)n1` [Ex. 228], the results for the herbicidal activity result in test [8] (1000 g/ha), in test [4] (1000 g/ha) and in test [7] (1000 g/ha) were “good (A good herbicidal activity is given at values of at least 70)”, “good (A good herbicidal activity is given at values of at least 70)” and “very good (a very good herbicidal activity is given at values of at least 85)”, respectively.
Turning to `Cc1nc(C)c(-c2nc(C3CC3)ncc2-c2cc(Br)ccc2Br)o1` [Ex. 292], the herbicidal activity result is recorded as “very good (a very good herbicidal activity is given at values of at least 85)” in test [5] (1000 g/ha); “very good (a very good herbicidal activity is given at values of at least 85)” in test [8] (1000 g/ha); “very good (a very good herbicidal activity is given at values of at least 85)” in test [2] (1000 g/ha); “good (A good herbicidal activity is given at values of at least 70)” in test [3] (1000 g/ha); “very good (a very good herbicidal activity is given at values of at least 85)” in test [7] (1000 g/ha).
With `CC(C)(C)c1ncc(-c2nc(C3CC3)ncc2-c2ccccc2Cl)o1` [Ex. 294], the herbicidal activity result in test [8] (2000 g/ha) is listed as “very good (a very good herbicidal activity is given at values of at least 85)”; in test [3] (2000 g/ha), “very good (a very good herbicidal activity is given at values of at least 85)”; in test [4] (2000 g/ha), “very good (a very good herbicidal activity is given at values of at least 85)”; in test [7] (2000 g/ha) it was “good (A good herbicidal activity is given at values of at least 70)”.
Turning to `CC1(C)OCC(=Cc2nc(C3CC3)ncc2-c2ccccc2Cl)CO1` [Ex. 296], the herbicidal activity result in test [4] (1000 g/ha) was “very good (a very good herbicidal activity is given at values of at least 85)”.
As to `Cn1c(-c2nc(C3CC3)ncc2-c2ccccc2Cl)coc1=O` [Ex. 289], the herbicidal activity entry in test [5] (2000 g/ha), in test [1] (2000 g/ha), in test [2] (2000 g/ha), in test [3] (2000 g/ha) and in test [7] (2000 g/ha) was “very good (a very good herbicidal activity is given at values of at least 85)” throughout.
In the case of `Clc1ccccc1-c1cnc(C2CC2)nc1-c1cccnc1` [Ex. 123], the herbicidal activity result is listed as “very good (a very good herbicidal activity is given at values of at least 85)” in test [1] (2000 g/ha) and “good (A good herbicidal activity is given at values of at least 70)” in test [2] (2000 g/ha).
As to `Cc1coc(C)c1-c1nc(C2CC2)ncc1-c1ccccc1Br` [Ex. 252], in test [4] (1000 g/ha), the herbicidal activity entry is reported as “very good (a very good herbicidal activity is given at values of at least 85)”.
